Experimental data reported in patent US20250360160A1, “NEW MEDICAL USE OF TAFOXIPARIN” (DILAFOR AB, priority 2022, published 2025).

Test system: term pregnant, nulliparous women with an unripe cervix
Experiment: Clinical phase II trial PPL17 (Parts A and B), subcutaneous tafoxiparin vs placebo
Assay type: in vivo, human
Conditions: for proportion of women achieving spontaneous onset of labor: placebo 28.7%, FIG. 1; for Labor induced, number of subjects: onset of labor with intervention; for Labor induced with PGE-1, percent of subjects: placebo 10.2%; for Labor induced with amniotomy, percent of subjects: placebo 56.8%; for Labor induction with Balloon catheter, percent of subjects: placebo 58.0%; for Labor induced, percent of subjects: placebo 70.5%
Protocol: A clinical phase II trial is performed as a randomized, double-blind, placebo-controlled, parallel-group proof of concept study (Part A) with a conditional dose finding follow up study (Part B) to evaluate the efficacy, safety, tolerability and dose response of subcutaneously administered tafoxiparin as a supplement to induction therapy in term pregnant, nulliparous women with an unripe cervix. The study is performed in Sweden and Finland (PPL17), and an EMA (European Medicines Agency) description of the study can be found on the EU Clinical Trials Register web (www.clinicaltrialsregister.eu/ctr-search/search?query=PPL17).
A total of 170 term pregnant women are randomized to receive either 300 mg of tafoxiparin, or corresponding placebo (vehicle), administered subcutaneously every 24±3 hours and up to a total of 7 doses, or until partus (Part A).
In the dose finding follow up study (Part B), a total of 164 term pregnant women are randomized to receive either 75 or 150 mg of tafoxiparin administered subcutaneously every 24±3 hours […] and up to a total of 7 doses, or until partus.
To assess the efficacy of tafoxiparin on cervical ripening/cervical ripening rate, during and up to the first seven days of treatment, measured by Bishop score. All women must be examined to check the cervical state before enrollment.
Time from start of treatment to increase in Bishop score of ≥2 points or spontaneous onset of labor, whichever comes first. Time from start of treatment to increase in Bishop score of ≥3 points or spontaneous onset of labor, whichever comes first. Time from start of treatment to increase in Bishop score of ≥4 points or spontaneous onset of labor, whichever comes first.
Cervical ripening as measured by change from baseline to end of treatment in Bishop Score. Time from onset of labor to partus, where onset of labor is defined as last record of 4 cm cervical dilatation visualized in the partogram and progress of labor, or last record of 4 cm of cervical dilatation in combination with amniotomy and intravenous administration oxytocin.
Proportion of women with spontaneous onset of labor (Response group I).
Tafoxiparin/Placebo is supplied by Dilafor AB to the site as kits designed to constitute 300 mg of tafoxiparin or placebo for daily administration. Apart from the active substance, each ml of study drug will constitute 0.015 M phosphate buffer. The study medication kit for each patient will contain 8 doses consisting of 2 vials containing a minimum extractable volume of 1.6 ml of 150 mg/ml of tafoxiparin or placebo. One dose is a reserve dose in case a dose is rendered unusable. The investigational product should be administered subcutaneously every 24±3hours by the site staff for up to 7 doses, or until partus. At each dosing time 1.0 ml of the drug will be extracted from each of the 2 vials and injected as separate s.c. injections in the abdominal or hip region.
Tafoxiparin/Placebo is supplied by Dilafor AB to the site as kits designed to constitute 75 or 150 mg of tafoxiparin for daily administration. Apart from the active substance, each ml of study drug will constitute 0.015 M phosphate buffer. The study medication kit for each patient will contain 8 doses consisting of 2 vials for each injection occasion containing a minimum extractable volume of 1.6 ml of 150 mg/ml of tafoxiparin or placebo. For subjects receiving 75 mg of tafoxiparin, one vial will contain active substance and one containing placebo. For subjects receiving 150 mg of tafoxiparin, both vials will contain active substance. One dose is a reserve dose in case a dose is rendered unusable. The investigational product should be administered subcutaneously every 24±3 hours by the site staff for up to 7 doses, or until partus. At each dosing time, 0.5 ml of the drug will be extracted from each of the 2 vials and injected as separate s.c. injections in the abdominal or hip region. […]

[1] = 75 mg, n = 83, listed as tafoxiparin

## tafoxiparin
75 mg daily s.c., of 82 women, p 0.102
  proportion of women achieving spontaneous onset of labor: 40.2%
75 mg, Study day 1, n=33
  number of subjects (women) that reach spontaneous onset of labor: 0
  percent of subjects (women) that reach spontaneous onset of labor: (0%)
75 mg, Study day 2, n=33
  number of subjects (women) that reach spontaneous onset of labor: 3
  percent of subjects (women) that reach spontaneous onset of labor: (9%)
75 mg, Study day 3, n=33
  number of subjects (women) that reach spontaneous onset of labor: 6
  percent of subjects (women) that reach spontaneous onset of labor: (18%)
75 mg, Study day 4, n=33
  number of subjects (women) that reach spontaneous onset of labor: 11
  percent of subjects (women) that reach spontaneous onset of labor: (33%)
75 mg, Study day 5, n=33
  number of subjects (women) that reach spontaneous onset of labor: 22
  percent of subjects (women) that reach spontaneous onset of labor: (67%)
75 mg, Study day 6, n=33
  number of subjects (women) that reach spontaneous onset of labor: 25
  percent of subjects (women) that reach spontaneous onset of labor: (76%)
75 mg, Study day 7, n=33
  number of subjects (women) that reach spontaneous onset of labor: 32
  percent of subjects (women) that reach spontaneous onset of labor: (97%)
75 mg, Study day 8, n=33
  number of subjects (women) that reach spontaneous onset of labor: 33
  percent of subjects (women) that reach spontaneous onset of labor: (100%)
75 mg, n = 83
  Fetal distress as indication for operative delivery (ODFD), number of patients: 16
  Labor induced with PGE-1, number of subjects: 7
  Labor induced with amniotomy, number of subjects: 46
  Labor induced with oxytocin, number of subjects: 34
  Labor induction with Balloon catheter, number of subjects: 35
  Labor induced, number of subjects: 48
  Labor induced with PGE-1, percent of subjects: (8.4%)
  Labor induced with amniotomy, percent of subjects: (55.4%)
  Labor induction with Balloon catheter, percent of subjects: (42.2%)
  Labor induced, percent of subjects: (57.8%)
[1]
  Labor induced with PGE-1, percent of subjects: 8.4%
  Labor induced with amniotomy, percent of subjects: 55.4%
  Labor induction with Balloon catheter, percent of subjects: 42.2%
  Labor induced, percent of subjects: 57.8%
75 mg, n = 83, placebo 22.7%
  Fetal distress as indication for operative delivery (ODFD), percent of patients: 19.3%
75 mg, n = 83, placebo 45.5%
  Percent of patients with operative delivery: 38.6%
75 mg, n = 83, placebo 54.5%
  Labor induced with oxytocin, percent of subjects: (41.0%)
75 mg, n = 83, placebo 54.5%, listed as tafoxiparin
  Labor induced with oxytocin, percent of subjects: 41.0%
75 mg, of 29 women
  number of women reaching spontaneous onset of labor with uncomplicated delivery: 22 women
75 mg, of 29 women, placebo 54.5%
  proportion of women reaching spontaneous onset of labor with uncomplicated delivery: 75.9%
75 mg, of 33 women
  number of women needing instrumental delivery or caesarian section to reach partus: 11 women
  number reaching partus by vaginal delivery with no need for instrumental delivery nor caesarian section: 22 women
75 mg, of 82 women
  number of women achieving spontaneous onset of labor: 33 women
75 mg, spontaneous onset of labor, of 29 women
  number of women needing instrumental delivery: 7 women
75 mg, women with spontaneous onset of labor, of 33, placebo 48%, FIG. 5
  proportion reaching partus by vaginal delivery with no need for instrumental delivery nor caesarian section: 66.7%
75 mg, women with spontaneous onset of labor, of 33, placebo 52%, FIG. 5
  proportion of women needing instrumental delivery or caesarian section to reach partus: 33.3%
75 mg, women with spontaneous onset of labor, vaginal mode of partus, of 29, p=0.181, placebo 45.5%, FIG. 4
  proportion of women needing instrumental delivery: 24.1%
150 mg daily s.c., of 85 women, p 0.039
  proportion of women achieving spontaneous onset of labor: 42.4%
150 mg, Study day 1, n=36
  number of subjects (women) that reach spontaneous onset of labor: 0
  percent of subjects (women) that reach spontaneous onset of labor: (0%)
150 mg, Study day 2, n=36
  number of subjects (women) that reach spontaneous onset of labor: 4
  percent of subjects (women) that reach spontaneous onset of labor: (11%)
150 mg, Study day 3, n=36
  number of subjects (women) that reach spontaneous onset of labor: 15
  percent of subjects (women) that reach spontaneous onset of labor: (42%)
150 mg, Study day 4, n=36
  number of subjects (women) that reach spontaneous onset of labor: 19
  percent of subjects (women) that reach spontaneous onset of labor: (53%)
150 mg, Study day 5, n=36
  number of subjects (women) that reach spontaneous onset of labor: 26
  percent of subjects (women) that reach spontaneous onset of labor: (72%)
150 mg, Study day 6, n=36
  number of subjects (women) that reach spontaneous onset of labor: 30
  percent of subjects (women) that reach spontaneous onset of labor: (83%)
150 mg, Study day 7, n=36
  number of subjects (women) that reach spontaneous onset of labor: 34
  percent of subjects (women) that reach spontaneous onset of labor: (94%)
150 mg, Study day 8, n=36
  number of subjects (women) that reach spontaneous onset of labor: 35
  percent of subjects (women) that reach spontaneous onset of labor: (97%)
150 mg, Study day 9, n=36
  number of subjects (women) that reach spontaneous onset of labor: 36
  percent of subjects (women) that reach spontaneous onset of labor: (100%)
150 mg, n = 85
  Fetal distress as indication for operative delivery (ODFD), number of patients: 20
  Labor induced with PGE-1, number of subjects: 7
  Labor induced with amniotomy, number of subjects: 39
  Labor induced with oxytocin, number of subjects: 38
  Labor induction with Balloon catheter, number of subjects: 37
  Labor induced, number of subjects: 48
  Labor induced with PGE-1, percent of subjects: (8.2%)
